Read-outs that look alike come from different tables or passages of the source. *1 amine or outer side, *2 acyl side, *3 side chain or, on linkers, in order; H or OH if unused. Where a SMILES comes first, the peptide text is derived from it. [ ]: non-standard residue; d: D form. Tyr(3-Cl) = N[C@@H](Cc1ccc(O)c(Cl)c1)C(=O)O; γGlu = O=C(O)[C@H](CCC(=O)[*:2])N[*:1]; βAsp = O=C(O)[C@H](CC(=O)[*:2])N[*:1]; Cya = N[C@@H](CS(=O)(=O)O)C(=O)O; Cit = NC(=O)NCCC[C@H](N)C(=O)O
Target: HLA-A*02:01 (Homo sapiens, UniProt P04439, D140Y/D185E/D98H/E176V/E277Q/G131W/G231S/I119V/I121R/I166T/I218V/L300P/L318F/N151K/N90K/P208A/P217A/Q86G/Q94H/R138H/R169H/T345S)
Experiment: HLA-peptide competition binding assay, A*02:01
Details: for Fold increase: increase of A*02:01 binding of the modified peptide compared to the WT peptide
[1] = post-translationally modified insulin peptide, competition binding assay, a dash indicates IC50 >40,000 nM, read-out: A*02:01 binding (IC50 nM) Modified
[2] = read-out: A*02:01 binding (IC50 nM) Modified

With `CC(C)C[C@H](NC(=O)[C@H](CC(=O)O)NC(=O)[C@H](CCC(=O)O)NC(=O)[C@H](C)NC(=O)[C@H](CCC(=O)O)NC(=O)[C@@H](N)CCCNC(N)=O)C(=O)N[C@@H](CCC(N)=O)C(=O)N[C@H](C(=O)NCC(=O)O)C(C)C` (H-[Cit]EAEDLQVG-OH; N-terminus and C-terminus assumed) the IC50 [1] was over 40000 nM.

For `CC(C)C[C@H](NC(=O)[C@H](CC(=O)O)NC(=O)[C@H](CCC(=O)O)NC(=O)[C@H](C)NC(=O)[C@H](CCC(=O)O)NC(=O)[C@@H](N)CCCNC(N)=O)C(=O)N[C@@H](CCC(N)=O)C(=O)N[C@H](C(=O)NCC(=O)N[C@@H](CCC(N)=O)C(=O)O)C(C)C` (H-[Cit]EAEDLQVGQ-OH; N-terminus and C-terminus assumed), the IC50 [1] was over 40000 nM.

Work on `CC(C)C[C@H](NC(=O)[C@H](CC(C)C)NC(=O)[C@H](C)NC(=O)[C@H](CC(C)C)NC(=O)[C@H](CC(C)C)NC(=O)[C@@H]1CCCN1C(=O)[C@H](CC(C)C)NC(=O)[C@H](CC(C)C)NC(=O)[C@@H](N)CCCNC(N)=O)C(=O)O` (H-[Cit]LLPLLALL-OH) yielded an IC50 [2] of 83 nM.

`CC(C)C[C@H](NC(=O)[C@H](C)NC(=O)[C@H](CC(C)C)NC(=O)[C@H](CC(C)C)NC(=O)[C@@H]1CCCN1C(=O)[C@H](CC(C)C)NC(=O)[C@H](CC(C)C)NC(=O)[C@@H](N)CCCNC(N)=O)C(=O)N[C@@H](CC(C)C)C(=O)N[C@@H](C)C(=O)O` (H-[Cit]LLPLLALLA-OH) gave an IC50 [2] of 70 nM.

`CC(C)C[C@H](NC(=O)[C@H](CC(=O)O)NC(=O)[C@H](CCC(=O)O)NC(=O)[C@H](C)NC(=O)[C@H](CCC(=O)O)NC(=O)[C@H](CCCNC(N)=O)NC(=O)[C@@H](N)CCCNC(N)=O)C(=O)N[C@@H](CCC(N)=O)C(=O)N[C@H](C(=O)O)C(C)C` (H-[Cit][Cit]EAEDLQV-OH; N-terminus and C-terminus assumed) gave an IC50 [1] of over 40000 nM.

`CC(C)C[C@H](NC(=O)[C@H](CC(=O)O)NC(=O)[C@H](CCC(=O)O)NC(=O)[C@H](C)NC(=O)[C@H](CCC(=O)O)NC(=O)[C@H](CCCNC(N)=O)NC(=O)[C@@H](N)CCCNC(N)=O)C(=O)N[C@@H](CCC(N)=O)C(=O)N[C@H](C(=O)NCC(=O)O)C(C)C` (H-[Cit][Cit]EAEDLQVG-OH; N-terminus and C-terminus assumed) gave an IC50 [1] of over 40000 nM.

With `CC(C)C[C@H](NC(=O)[C@H](C)N)C(=O)N[C@@H](Cc1ccc(O)c(Cl)c1)C(=O)N[C@@H](CC(C)C)C(=O)N[C@H](C(=O)N[C@@H](CS)C(=O)NCC(=O)N[C@@H](CCC(=O)O)C(=O)N[C@@H](CCCNC(=N)N)C(=O)NCC(=O)O)C(C)C` [ALJLVCGERG] the Fold increase was 3.21 fold.

`C[C@@H](O)[C@H](NC(=O)[C@H](Cc1ccc(O)cc1)NC(=O)[C@H](Cc1ccc(O)cc1)NC(=O)[C@H](Cc1ccc(O)cc1)NC(=O)CNC(=O)[C@H](CCCNC(=N)N)NC(=O)[C@H](CCC(=O)O)NC(=O)CNC(=O)[C@@H](N)CS(=O)(=O)O)C(=O)N1CCC[C@H]1C(=O)O` [BGERGYYYTP] (H-[Cya]GERGYYYTP-OH; N-terminus and C-terminus assumed) was tested, and the IC50 (read-out: A*02:01 binding (IC50 nM) Modified, post-translationally modified insulin peptide, competition binding assay, a dash indicates IC50 >40,000 nM) was over 40000 nM.

Molecule `C[C@@H](O)[C@H](NC(=O)[C@H](Cc1ccc(O)cc1)NC(=O)[C@H](Cc1ccc(O)cc1)NC(=O)[C@H](Cc1ccc(O)cc1)NC(=O)CNC(=O)[C@H](CCCNC(=N)N)NC(=O)[C@H](CCC(=O)O)NC(=O)CNC(=O)[C@@H](N)CS(=O)(=O)O)C(=O)O` [BGERGYYYT] (H-[Cya]GERGYYYT-OH; N-terminus and C-terminus assumed) has an IC50 [1] of over 40000 nM.

`CC(C)C[C@H](NC(=O)[C@H](C)NC(=O)[C@H](CCC(=O)O)NC(=O)[C@@H](NC(=O)[C@H](CC(C)C)NC(=O)[C@H](Cc1c[nH]cn1)NC(=O)[C@H](CO)NC(=O)CNC(=O)[C@@H](N)CS(=O)(=O)O)C(C)C)C(=O)N[C@@H](Cc1ccc(O)cc1)C(=O)O` [BGSHLVEALY] (H-[Cya]GSHLVEALY-OH) gave an IC50 (post-translationally modified insulin-derived peptide, radiolabeled ligand competition, purified MHC, two-day incubation, three or more independent experiments, read-out: A*02:01 binding, Modified) of 8040 nM.

Molecule `CC(C)C[C@H](NC(=O)[C@H](C)NC(=O)[C@H](CCC(=O)O)NC(=O)[C@@H](NC(=O)[C@H](CC(C)C)NC(=O)[C@H](Cc1c[nH]cn1)NC(=O)[C@H](CO)NC(=O)CNC(=O)[C@@H](N)CS(=O)(=O)O)C(C)C)C(=O)O` [BGSHLVEAL] (H-[Cya]GSHLVEAL-OH; N-terminus and C-terminus assumed) has an IC50 [1] of over 40000 nM.

`CC(C)C[C@H](NC(=O)[C@H](Cc1c[nH]cn1)NC(=O)[C@H](CCC(N)=O)NC(=O)[C@H](CC(N)=O)NC(=O)[C@@H](NC(=O)[C@@H](N)Cc1ccccc1)C(C)C)C(=O)N[C@@H](CS(=O)(=O)O)C(=O)NCC(=O)N[C@@H](CO)C(=O)N[C@@H](Cc1c[nH]cn1)C(=O)O` [FVNQHLBGSH] (H-FVNQHL[Cya]GSH-OH; N-terminus and C-terminus assumed) was tested, and the IC50 [1] was over 40000 nM.

In the case of `CC(C)C[C@H](NC(=O)[C@H](Cc1c[nH]cn1)NC(=O)[C@H](CCC(N)=O)NC(=O)[C@H](CC(N)=O)NC(=O)[C@@H](NC(=O)[C@@H](N)Cc1ccccc1)C(C)C)C(=O)N[C@@H](CS(=O)(=O)O)C(=O)NCC(=O)N[C@@H](CO)C(=O)O` [FVNQHLBGS] (H-FVNQHL[Cya]GS-OH; N-terminus and C-terminus assumed), the IC50 [1] is reported as over 40000 nM.

Molecule `CC(C)C[C@H](NC(=O)[C@H](Cc1c[nH]cn1)NC(=O)CC[C@H](NC(=O)C[C@H](NC(=O)[C@@H](NC(=O)[C@@H](N)Cc1ccccc1)C(C)C)C(=O)O)C(=O)O)C(=O)N[C@@H](CS)C(=O)NCC(=O)N[C@@H](CO)C(=O)N[C@@H](Cc1c[nH]cn1)C(=O)O` [FVOZHLCGSH] (H-FV[βAsp][γGlu]HLCGSH-OH; N-terminus and C-terminus assumed) has an IC50 [1] of over 40000 nM.

`CC(C)C[C@H](NC(=O)[C@H](Cc1c[nH]cn1)NC(=O)CC[C@H](NC(=O)C[C@H](NC(=O)[C@@H](NC(=O)[C@@H](N)Cc1ccccc1)C(C)C)C(=O)O)C(=O)O)C(=O)N[C@@H](CS)C(=O)NCC(=O)N[C@@H](CO)C(=O)O` [FVOZHLCGS] (H-FV[βAsp][γGlu]HLCGS-OH; N-terminus and C-terminus assumed) showed an IC50 [1] of over 40000 nM.

In the case of `CC[C@H](C)[C@H](NC(=O)CNC(=O)[C@H](CCCNC(N)=O)NC(=O)[C@H](CCCCN)NC(=O)[C@H](CCC(N)=O)NC(=O)[C@H](CC(C)C)NC(=O)[C@H](CO)NC(=O)CN)C(=O)N[C@H](C(=O)N[C@@H](CCC(=O)O)C(=O)O)C(C)C` [GSLQKUGIVE] (H-GSLQK[Cit]GIVE-OH), the IC50 [2] is reported as 34500 nM.

In the case of `CC(C)C[C@H](NC(=O)[C@H](Cc1c[nH]cn1)NC(=O)[C@H](CO)NC(=O)CNC(=O)[C@H](CS(=O)(=O)O)NC(=O)[C@H](CC(C)C)NC(=O)[C@@H](N)Cc1c[nH]cn1)C(=O)N[C@H](C(=O)N[C@@H](CCC(=O)O)C(=O)N[C@@H](C)C(=O)O)C(C)C` [HLBGSHLVEA] (H-HL[Cya]GSHLVEA-OH), the IC50 is reported as 6210 nM.

Molecule `CC(C)C[C@H](NC(=O)[C@H](Cc1c[nH]cn1)NC(=O)[C@H](CO)NC(=O)CNC(=O)[C@H](CS(=O)(=O)O)NC(=O)[C@H](CC(C)C)NC(=O)[C@@H](N)Cc1c[nH]cn1)C(=O)N[C@H](C(=O)N[C@@H](CCC(=O)O)C(=O)O)C(C)C` [HLBGSHLVE] (H-HL[Cya]GSHLVE-OH; N-terminus and C-terminus assumed) has an IC50 [1] of over 40000 nM.

In the case of `CC(C)C[C@H](NC(=O)[C@@H](N)Cc1ccc(O)c(Cl)c1)C(=O)N[C@H](C(=O)N[C@@H](CS)C(=O)NCC(=O)N[C@@H](CCC(=O)O)C(=O)N[C@@H](CCCNC(=N)N)C(=O)NCC(=O)N[C@@H](Cc1ccccc1)C(=O)O)C(C)C` [JLVCGERGF] (H-[Tyr(3-Cl)]LVCGERGF-OH; N-terminus and C-terminus assumed), the Fold increase is reported as 2.13 fold.

For `CC(C)C[C@H](NC(=O)[C@H](C)NC(=O)[C@H](CCC(=O)O)NC(=O)[C@@H](NC(=O)[C@H](CC(C)C)NC(=O)[C@H](Cc1c[nH]cn1)NC(=O)[C@H](CO)NC(=O)CNC(=O)[C@H](CS(=O)(=O)O)NC(=O)[C@@H](N)CC(C)C)C(C)C)C(=O)O` [LBGSHLVEAL] (H-L[Cya]GSHLVEAL-OH; N-terminus and C-terminus assumed), the IC50 [1] was over 40000 nM.

For `CC(C)C[C@H](NC(=O)[C@H](Cc1c[nH]cn1)NC(=O)[C@H](CO)NC(=O)CNC(=O)[C@H](CS(=O)(=O)O)NC(=O)[C@@H](N)CC(C)C)C(=O)N[C@H](C(=O)N[C@@H](CCC(=O)O)C(=O)N[C@@H](C)C(=O)O)C(C)C` [LBGSHLVEA] (H-L[Cya]GSHLVEA-OH), the IC50 [2] was 14800 nM.

`CC(C)C[C@H](N)C(=O)N[C@H](C(=O)N[C@@H](CS(=O)(=O)O)C(=O)NCC(=O)N[C@@H](CCC(=O)O)C(=O)N[C@@H](CCCNC(=N)N)C(=O)NCC(=O)N[C@@H](Cc1ccc(O)cc1)C(=O)N[C@@H](Cc1ccc(O)cc1)C(=O)N[C@@H](Cc1ccc(O)cc1)C(=O)O)C(C)C` [LVBGERGYYY] (H-LV[Cya]GERGYYY-OH; N-terminus and C-terminus assumed) showed an IC50 [1] of over 40000 nM.

`CC(C)C[C@H](N)C(=O)N[C@H](C(=O)N[C@@H](CS(=O)(=O)O)C(=O)NCC(=O)N[C@@H](CCC(=O)O)C(=O)N[C@@H](CCCNC(=N)N)C(=O)NCC(=O)N[C@@H](Cc1ccc(O)cc1)C(=O)N[C@@H](Cc1ccc(O)cc1)C(=O)O)C(C)C` [LVBGERGYY] (H-LV[Cya]GERGYY-OH; N-terminus and C-terminus assumed) was tested, and the IC50 [1] was over 40000 nM.

Molecule `CC(C)C[C@H](NC(=O)[C@H](Cc1ccc(O)cc1)NC(=O)[C@@H](N)CC(C)C)C(=O)N[C@H](C(=O)N[C@@H](CS(=O)(=O)O)C(=O)NCC(=O)N[C@@H](CCC(=O)O)C(=O)N[C@@H](CCCNC(=N)N)C(=O)NCC(=O)N[C@@H](Cc1ccc(O)cc1)C(=O)O)C(C)C` [LYLVBGERGY] (H-LYLV[Cya]GERGY-OH) has an IC50 [2] of 35500 nM.

`CSCC[C@H](N)C(=O)N[C@@H](CCCNC(N)=O)C(=O)N[C@@H](CC(C)C)C(=O)N[C@@H](CC(C)C)C(=O)N1CCC[C@H]1C(=O)N[C@@H](CC(C)C)C(=O)N[C@@H](CC(C)C)C(=O)N[C@@H](C)C(=O)N[C@@H](CC(C)C)C(=O)O` [MULLPLLAL] (H-M[Cit]LLPLLAL-OH) gave an IC50 [2] of 1860 nM.

Source: article PMC5863483, “Low HLA binding of diabetes-associated CD8+ T-cell epitopes is increased by post translational modifications” (BMC Immunology, 2018)
